Results: paper PMC11123961, “Design, Synthesis, and Biological Evaluation of the Quorum-Sensing Inhibitors of Pseudomonas aeruginosa PAO1” (Molecules, 2024)
Read-outs that look alike come from different tables or passages of the source.

Tests used:
C. violaceum CV026 QS [1] = system: C. violaceum CV026 QS; set-up: method as in earlier work; settings: lead compound, value of Zhao; cited from earlier work
C. violaceum CV026 QS [2] = experiment: Half-maximal inhibitory concentration against C. violaceum CV026 QS (suppression of violacein production); type: cell-based; settings: Chromobacterium violaceum; C6-HSL-induced violacein production, 12 h; mean ± SD of three independent tests; read-out: IC50, anti-CV026 QS activity
Description: In the exploration of the QS inhibitions, C. violaceum CV026, a mini-T5 mutant of C. violaceum ATCC31532, is frequently employed as a biosensor strain. Because C. violaceum CV026 lacks the CviI gene, which directs the synthesis of AHLs, it is unable to manufacture violacein on its own. The violacein reaction can be induced in C. violaceum CV026 by adding exogenous C6-HSL [27]. As a result, the violacein reaction in C. violaceum CV026 can be used to assess the compounds’ suppression of QS, as used in this investigation.
3.2.2. The Half-Maximal Inhibitory Concentration (IC50) of Compounds against C. violaceum CV026 QS [36]
Subsequently, the log phase of C. violaceum CV026 was placed in a 12-well plate (2 mL/well) after being diluted 10-fold with fresh LB medium. The experimental group received 15 μL of the diluted inducer C6-HSL (0.125 mM), and 8 μL of each dilution gradient compound was added to each well, while the positive control group received 8 μL of C10-HSL, and the blank control group received 8 μL of LB medium. The plates were incubated at 30 °C and 130 rpm for 12 h. After centrifuging 1 mL of the culture for 10 min at 11,255 g, the supernatant was discarded. After dissolving the violacein with 500 μL of DMSO, the mixture was centrifuged once more at 11,255 g for 10 min. In order to measure the absorbance at 585 nm, 200 μL of the upper pigment was added to a 96-well plate. The IC50 was calculated using GraphPad Prism 5 according to the formula (absorbance at 585 nm of the test concentration/the absorbance of the control at 585 nm × 100%).

[3] = system: P. aeruginosa PAO1 biofilms; experiment: Biofilm quantification, crystal violet assay; type: cell-based, Pseudomonas aeruginosa; settings: for inhibition at 20.3125 µM / inhibition at 40.625 µM / inhibition at 81.25 µM / inhibition at 162.5 µM / inhibition at 325 µM: Pseudomonas aeruginosa, PAO1, 20 h, read-out: Inhibition ratio of biofilm; for inhibition at 20.3125 µM: concentration 20.3125 (unit not given in Table S1; μM in method); for inhibition at 40.625 µM: concentration 40.625 (unit not given in Table S1; μM in method); for inhibition at 81.25 µM: concentration 81.25 (unit not given in Table S1; μM in method); for inhibition at 162.5 µM: concentration 162.5 (unit not given in Table S1; μM in method); for inhibition at 325 µM: concentration 325 (unit not given in Table S1; μM in method)
Experimental: 3.2.3. Biofilm Quantification Assays
The crystal violet assay was used to quantitatively analyze the biofilm, as previously described. P. aeruginosa PAO1 log phase was diluted 100 times with fresh LB medium and incubated for 3.5 h at 37 °C and 150 rpm. After that, the P. aeruginosa PAO1 bacterial culture was added to the 96-well plate. P. aeruginosa PAO1 bacterial culture in 90 μL was added to the experimental group, and 10 μL of the test compound at a final concentration of 325 μM, 162.5 μM, 81.25 μM, 40 μM, 20 μM, and 10 μM. Each well received 100 μL of bacterial culture for the control group and 100 μL of fresh LB medium for the blank group. After 20 h of incubation at 37 °C, the bacterial culture was removed from the 96-well plate, and it was dried after three PBS washes. Each well received […] of 0.1% crystal violet (CV) for a 15 min staining period. Each well was washed three times with PBS after the CV was removed. Lastly, each well received 150 μL of 33% glacial acetic acid, and a Biotek multi-function microplate reader was used to measure the absorbance value at 595 nm. The biofilm inhibition rate was calculated as follows = (OD595 blank − OD595 sample)/OD595 blank × 100%.

[4] = system: wildtype Caenorhabditis elegans N2 infected with P. aeruginosa PAO1; experiment: C. elegans survival assay; type: in vivo; settings: after 48 h; agent alone: Y-31 162.5 μM, Tob 0.25 μg/mL
Description: 3.2.7. C. elegans Survival Assay
The negative control was the PGS agar plate coated with E. Coli OP50. Next, 50 wildtype C. elegans N2 strain-synchronized nematodes (L4 stage) were chosen and placed onto the plates. […] When the nematodes in the study were immobile, they were deemed dead. The number of nematodes that survived was tabulated to generate a survival curve.

C. violaceum CV026 QS [5] = experiment: Half-maximal inhibitory concentration against C. violaceum CV026 QS (suppression of violacein production); type: cell-based; settings: qualitative preliminary screening

O=C(NN1CCOC1=O)c1ccccc1 [AOZ-1]
IC50 (C. violaceum CV026 QS [1]): > 200 µM

CCCCCCCCCC(=O)N[C@H]1CCOC1=O [C10-HSL, reference compound]
IC50 (C. violaceum CV026 QS [2]): 0.15 ± 0.024 µM | inhibition at 20.3125 µM [3]: -4.35% | inhibition at 40.625 µM [3]: 2.25% | inhibition at 81.25 µM [3]: 0.25% | inhibition at 162.5 µM [3]: 6.3% | inhibition at 325 µM [3]: -18.8% | Effect on the biofilm of P. aeruginosa PAO1 ([3]; crystal violet assay): no significant inhibitory effect

NC[C@H]1O[C@H](O[C@H]2[C@H](O)[C@@H](O[C@H]3O[C@H](CO)[C@@H](O)[C@H](N)[C@H]3O)[C@H](N)C[C@@H]2N)[C@H](N)C[C@@H]1O [Tob, Tobramycin, reference compound]
Improvement of the survival rate of infected nematodes (average) [4]: 63.33%

O=C(CCCOc1ccc2ccncc2c1)NN1CCOC1=O [Y-1]
IC50 (C. violaceum CV026 QS [2]): 199 ± 13.9 µM | C. violaceum CV026 QS inhibitory activity (first assessment) (C. violaceum CV026 QS [5]): inhibited

COc1ccc(OCCCC(=O)NN2CCOC2=O)cc1 [Y-3]
IC50 (C. violaceum CV026 QS [2]): 208 ± 7.26 µM | C. violaceum CV026 QS inhibitory activity (first assessment) (C. violaceum CV026 QS [5]): inhibited

O=C(CCCCOc1ccc(Br)cc1)NN1CCCOC1=O [Y-4]
IC50 (C. violaceum CV026 QS [2]): > 260 µM

O=C(CCCOc1ccc(-c2ccccc2)cc1)NN1CCOC1=O [Y-5]
IC50 (C. violaceum CV026 QS [2]): 125 ± 16.1 µM

O=C(CCCOc1ccc(Br)cc1)NN1CCCOC1=O [Y-6]
IC50 (C. violaceum CV026 QS [2]): > 260 µM

O=C(CCCOc1ccc(Br)nc1)NN1CCOC1=O [Y-9]
IC50 (C. violaceum CV026 QS [2]): 168 ± 7.28 µM | C. violaceum CV026 QS inhibitory activity (first assessment) (C. violaceum CV026 QS [5]): inhibited

O=C(CCCOc1cnc(Br)cn1)NN1CCOC1=O [Y-15]
IC50 (C. violaceum CV026 QS [2]): 91.3 ± 3.02 µM | inhibition at 20.3125 µM [3]: 6.73% | inhibition at 40.625 µM [3]: 27% | inhibition at 81.25 µM [3]: 36.8% | inhibition at 162.5 µM [3]: 33.9% | inhibition at 325 µM [3]: 32.1% | C. violaceum CV026 QS inhibitory activity (first assessment) (C. violaceum CV026 QS [5]): inhibited

CCCCc1ccc(OCCCC(=O)NN2CCOC2=O)cc1 [Y-17]
IC50 (C. violaceum CV026 QS [2]): > 260 µM

CC(C)(C)Oc1ccc(OCCCC(=O)NN2CCOC2=O)cc1 [Y-18]
IC50 (C. violaceum CV026 QS [2]): > 260 µM

CCc1ccc(OCCCC(=O)NN2CCOC2=O)cc1 [Y-19]
IC50 (C. violaceum CV026 QS [2]): 153 ± 8.78 µM

O=C(CCCOc1ccc(C(F)(F)F)cc1)NN1CCOC1=O [Y-25]
IC50 (C. violaceum CV026 QS [2]): 62.6 ± 3.27 µM | inhibition at 20.3125 µM [3]: 18.8% | inhibition at 40.625 µM [3]: 32.2% | inhibition at 81.25 µM [3]: 33.4% | inhibition at 162.5 µM [3]: 39.9% | inhibition at 325 µM [3]: 32.2% | C. violaceum CV026 QS inhibitory activity (first assessment) (C. violaceum CV026 QS [5]): inhibited

O=C(CCCOc1ccc(I)cc1)NN1CCOC1=O [Y-26]
IC50 (C. violaceum CV026 QS [2]): 27.6 ± 1.25 µM | inhibition at 20.3125 µM [3]: 2.17% | inhibition at 40.625 µM [3]: 33.5% | inhibition at 81.25 µM [3]: 42.5% | inhibition at 162.5 µM [3]: 44.6% | inhibition at 325 µM [3]: 38.7% | C. violaceum CV026 QS inhibitory activity (first assessment) (C. violaceum CV026 QS [5]): inhibited

O=C(CCCOc1ccccc1)NN1CCOC1=O [Y-28]
IC50 (C. violaceum CV026 QS [2]): 232 ± 5.84 µM | C. violaceum CV026 QS inhibitory activity (first assessment) (C. violaceum CV026 QS [5]): inhibited

O=C(CCCOc1ccc2ccccc2c1)NN1CCOC1=O [Y-29]
IC50 (C. violaceum CV026 QS [2]): 26.1 ± 2.52 µM | inhibition at 20.3125 µM [3]: 9.51% | inhibition at 40.625 µM [3]: 32.7% | inhibition at 81.25 µM [3]: 34.7% | inhibition at 162.5 µM [3]: 40.9% | inhibition at 325 µM [3]: 9.07% | C. violaceum CV026 QS inhibitory activity (first assessment) (C. violaceum CV026 QS [5]): inhibited

O=C(CCCOc1cccc2ccccc12)NN1CCOC1=O [Y-37]
IC50 (C. violaceum CV026 QS [2]): 102 ± 4.36 µM | inhibition at 20.3125 µM [3]: 15.3% | inhibition at 40.625 µM [3]: 35.1% | inhibition at 81.25 µM [3]: 36.4% | inhibition at 162.5 µM [3]: 28.7% | inhibition at 325 µM [3]: 18.2%

CC(C)c1ccc(OCCCC(=O)NN2CCOC2=O)cc1 [Y-38]
IC50 (C. violaceum CV026 QS [2]): > 260 µM

O=C(CCCSc1ccc(Br)cc1)NN1CCOC1=O [Y-39]
IC50 (C. violaceum CV026 QS [2]): 47.4 ± 1.74 µM | inhibition at 20.3125 µM [3]: 12.9% | inhibition at 40.625 µM [3]: 23.4% | inhibition at 81.25 µM [3]: 28.4% | inhibition at 162.5 µM [3]: 24.9% | inhibition at 325 µM [3]: 21.2%

Cc1ccc(OCCCC(=O)NN2CCOC2=O)c(C)c1 [Y-40]
IC50 (C. violaceum CV026 QS [2]): 180.5 ± 1.77 µM
